In patent publication US20230218632A1, “CYCLIC SULFONAMIDE DERIVATIVES AS TRAP1 MODULATORS AND USES THEREOF” (Amathus Therapeutics, Inc., priority 2020, published 2023):

Target: T1, TRAP1 enzyme (Homo sapiens, UniProt Q12931)
T1 sequence (Q12931 60-704): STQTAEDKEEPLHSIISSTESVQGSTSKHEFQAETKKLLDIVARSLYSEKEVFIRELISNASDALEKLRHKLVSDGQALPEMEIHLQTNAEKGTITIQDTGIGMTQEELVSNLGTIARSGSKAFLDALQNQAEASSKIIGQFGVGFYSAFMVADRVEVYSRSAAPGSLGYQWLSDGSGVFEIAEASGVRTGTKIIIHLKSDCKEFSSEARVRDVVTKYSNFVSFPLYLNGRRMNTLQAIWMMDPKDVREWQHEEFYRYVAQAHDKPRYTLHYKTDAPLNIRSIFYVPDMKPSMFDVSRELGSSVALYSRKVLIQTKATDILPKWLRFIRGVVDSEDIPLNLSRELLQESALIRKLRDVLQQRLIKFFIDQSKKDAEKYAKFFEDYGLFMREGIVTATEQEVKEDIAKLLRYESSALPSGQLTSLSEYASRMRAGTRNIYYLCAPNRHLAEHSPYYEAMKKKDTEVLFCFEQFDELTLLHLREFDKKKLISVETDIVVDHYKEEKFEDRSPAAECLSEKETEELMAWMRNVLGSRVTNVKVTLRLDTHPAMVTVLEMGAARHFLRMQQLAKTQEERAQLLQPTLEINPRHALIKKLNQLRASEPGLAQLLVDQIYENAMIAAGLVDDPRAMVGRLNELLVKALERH
Experiment: ADP Glo assay (ATPase activity of TRAP1)
Assay type: biochemical
Conditions: for EC50: 150 nM Trap1, 20 µM ATP, concentration for half maximal activation, read-out: ADP GLO DRC: GeoMean EC50; for Emax: maximal percent activation, read-out: ADP GLO DRC: Mean Emax
Procedure: Potency of test compounds to modulate the ATPase activity of TRAP1 enzyme was evaluated using ADP Glo assay. The assay is based on quantification of the ADP generated from ATP in the ATPase reaction. The assay is performed in two steps; first, after the ATPase reaction, an equal volume of ADP-Glo™ Reagent is added to terminate the ATPase reaction and deplete the remaining ATP. Second, the Kinase Detection Reagent is added to simultaneously convert ADP to ATP and allow the newly synthesized ATP to be measured using a luciferase/luciferin reaction.
All the assays were carried out in a 384-well Proxiplate. The buffer used was 25 mM Pipes pH-7.5, 40 mM KCl, 0.05 mM MgCl2, 0.025 % BSA, 0.316 mM EGTA, 0.003% Empigen, 0.01% Igepal. 150 nM Trap1 enzyme was incubated with various concentrations of the test compound (0.79 µM - 100 µM) at 37° C. for 30 mins (except in blank wells). 20 µM ATP was added to each well to start the reaction. The plate was spun for 1 min at 1200 rpm and then incubated at 37° C. for 60 mins. 5 µl of ADP Glo reagent was added to all the wells and spun the plate for 1 min at 1200 rpm and kept it on a shaker at ambient temperature for 60 mins. 10 µl of kinase detection mix was added to all the wells and the plate was read for Luminescence at 495 nm. The amount of ADP released was estimated from ATP/ADP standard curve generated at the same experimental conditions. Emax (Maximal percent activation) and EC50 (concentration for half maximal activation ) were estimated by fitting the dose response data to a sigmoidal curve fitting equation using Graphpad Prism software V. 8.

EC50 [µM] | Emax [%] | SMILES
30 to 100 | > 200 | O=C(Nc1ccc2c(c1)S(=O)(=O)N(c1ccc(C(F)(F)F)cc1)CCO2)c1cc[nH]c(=O)c1 [Compound 2187]
20 to 30 | 129 to 149 | CC(C)n1cc(C(=O)Nc2ccc3c(c2)S(=O)(=O)N(c2ccc(C(F)(F)F)cc2)CCO3)cn1 [Compound 2192]
30 to 100 | 150 to 200 | Cc1ncncc1C(=O)Nc1ccc2c(c1)S(=O)(=O)N(c1ccc(C(F)(F)F)cc1)CCO2 [Compound 2206]
< 20 | 129 to 149 | CCn1nccc1C(=O)Nc1ccc2c(c1)S(=O)(=O)N(c1ccc(C(F)(F)F)cc1)CCO2 [Compound 2254]
20 to 30 | 129 to 149 | O=C(Nc1ccc2c(c1)S(=O)(=O)N(c1ccc(C(F)(F)F)cc1)CCO2)c1csc(CO)n1 [Compound 2305]
20 to 30 | 150 to 200 | Cc1nc(C(=O)Nc2ccc3c(c2)S(=O)(=O)N(c2ccc(C(F)(F)F)cc2)CCO3)co1 [Compound 1992, N-(1,1-Dioxido-2-(4-(trifluoromethyl)Phenyl)-3,4-Dihydro-2H-Benzo[b][1,4,5]Oxathiazepin-8-yl)-2-Methyloxazole-4-Carboxamide]
20 to 30 | 129 to 149 | Cn1nc(C(=O)Nc2ccc3c(c2)S(=O)(=O)N(c2ccc(C(F)(F)F)cc2)CCO3)ccc1=O [Compound 2228]
< 20 | 150 to 200 | O=C(Nc1ccc2c(c1)S(=O)(=O)N(c1ccc(C(F)(F)F)cc1)CCO2)c1cnc[nH]c1=O [Compound 2334]
30 to 100 | 150 to 200 | Cc1ncc(C(=O)Nc2ccc3c(c2)S(=O)(=O)N(c2ccc(C(F)(F)F)cc2)CCO3)cn1 [Compound 2200]
< 20 | 129 to 149 | COc1cc(N2CCOc3ccc(NC(=O)c4ncoc4C)cc3S2(=O)=O)ccc1C(F)(F)F [Compound 2398]
30 to 100 | 129 to 149 | Cc1nccnc1C(=O)Nc1ccc2c(c1)S(=O)(=O)N(c1ccc(C(F)(F)F)cc1)CCO2 [Compound 2215]
30 to 100 | 129 to 149 | O=C(Nc1ccc2c(c1)S(=O)(=O)N(c1ccc(C(F)(F)F)cc1)CCO2)c1ncoc1C(F)(F)F [Compound 2494]
30 to 100 | 150 to 200 | COCc1oncc1C(=O)Nc1ccc2c(c1)S(=O)(=O)N(c1ccc(C(F)(F)F)cc1)CCO2 [Compound 2257]
30 to 100 | 150 to 200 | Cc1ccncc1C(=O)Nc1ccc2c(c1)S(=O)(=O)N(c1ccc(Cl)cc1)CCO2 [Compound 1209, N-(2-(4-chlorophenyl)-1,1-Dioxido-3,4-Dihydro-2H-Benzo[b][1,4,5] Oxathiazepin-8-yl)-4-Methylnicotinamide]
20 to 30 | 129 to 149 | O=C(Nc1ccc2c(c1)S(=O)(=O)N(c1ccc(C(F)(F)F)cc1)CCO2)c1cnccc1F [Compound 2264]
< 20 | 150 to 200 | CCc1nn(C)cc1C(=O)Nc1ccc2c(c1)S(=O)(=O)N(c1ccc(C(F)(F)F)cc1)CCO2 [Compound 2265]
20 to 30 | 150 to 200 | COc1nccnc1C(=O)Nc1ccc2c(c1)S(=O)(=O)N(c1ccc(C(F)(F)F)cc1)CCO2 [Compound 2230]
< 20 | 150 to 200 | O=C(Nc1ccc2c(c1)S(=O)(=O)N(c1ccc(C(F)(F)F)cc1)CCO2)c1cccc(CO)n1 [Compound 2291]
20 to 30 | 150 to 200 | Cn1cccc(C(=O)Nc2cnc3c(c2)S(=O)(=O)N(c2ccc(C(F)(F)F)cc2)CCO3)c1=O [Compound 2462]
30 to 100 | > 200 | Cc1ncoc1C(=O)Nc1ccc2c(c1)S(=O)(=O)N(c1ccc(Cl)cc1)CCO2 [Compound 1210, N-(2-(4-chlorophenyl)-1,1-Dioxido-3,4-Dihydro-2H-Benzo[b][1,4,5]Oxathiazepin-8-yl)-4-Methyloxazole-5-Carboxamide]
20 to 30 | 129 to 149 | Cc1ccc(C(=O)Nc2ccc3c(c2)S(=O)(=O)N(c2ccc(C(F)(F)F)cc2)CCO3)cn1 [Compound 2174]

EC50 [µM] | Emax [%] | SMILES
< 20 | 129 to 149 | O=C(Nc1ccc2c(c1)S(=O)(=O)N(c1ccc(C(F)(F)F)cc1)CCO2)c1ccc(O)nn1 [Compound 2194]
30 to 100 | 150 to 200 | O=C(Nc1ccc2c(c1)S(=O)(=O)N(c1ccc(C(F)(F)F)cc1)CCO2)C1CCCN1 (stereo not shown) [Compound 2410]
< 20 | 129 to 149 | Cc1nscc1C(=O)Nc1ccc2c(c1)S(=O)(=O)N(c1ccc(C(F)(F)F)cc1)CCO2 [Compound 2227]
< 20 | 129 to 149 | Cn1ccnc1C(=O)Nc1ccc2c(c1)S(=O)(=O)N(c1ccc(C(F)(F)F)cc1)CCO2 [Compound 2090, N-(1,1-Dioxido-2-(4-(Trifluoromethyl)Phenyl)-3,4-Dihydro-2H-Benzo[b][1,4,5]Oxathiazepin-8-yl)-1-Methyl-1H-Imidazole-2-Carboxamide]
30 to 100 | > 200 | Cn1ccc(=O)cc1C(=O)Nc1ccc2c(c1)S(=O)(=O)N(c1ccc(C(F)(F)F)cc1)CCO2 [Compound 2516]
30 to 100 | 150 to 200 | O=C(Nc1ccc2c(c1)S(=O)(=O)N(c1ccc(C(F)(F)F)cc1)CCO2)c1cccnn1 [Compound 2224]
< 20 | 150 to 200 | Cc1cncc(C(=O)Nc2ccc3c(c2)S(=O)(=O)N(c2ccc(C(F)(F)F)cc2)CCO3)c1 [Compound 2191]
30 to 100 | 150 to 200 | Cc1nc(C)c(C(=O)Nc2ccc3c(c2)S(=O)(=O)N(c2ccc(C(F)(F)F)cc2)CCO3)s1 [Compound 2248]
< 20 | 150 to 200 | COc1cccnc1C(=O)Nc1ccc2c(c1)S(=O)(=O)N(c1ccc(C(F)(F)F)cc1)CCO2 [Compound 2288]
30 to 100 | 150 to 200 | O=C(Nc1ccc2c(c1)S(=O)(=O)N(c1ccc(C(F)(F)F)cc1)CCO2)c1cccnc1O [Compound 2280]
< 20 | 129 to 149 | Cc1ocnc1C(=O)Nc1ccc2c(c1)S(=O)(=O)N(c1ccc(C(F)(F)F)cc1)CCO2 [Compound 1975, N-(1,1-Dioxido-2-(4-(Trifluoromethyl)Phenyl)-3,4-Dihydro-2H-Benzo[b][1,4,5]Oxathiazepin-8-yl)-5-Methyloxazole-4-Carboxamide]
30 to 100 | 150 to 200 | O=C(Nc1ccc2c(c1)S(=O)(=O)N(c1ccc(C(F)(F)F)cc1)CCO2)c1cocn1 [Compound 1976, N-(1,1-Dioxido-2-(4-(Trifluoromethyl)Phenyl)-3,4-Dihydro-2H-Benzo[b][1,4,5]Oxathiazepin-8-yl)Oxazole-4-Carboxamide]
30 to 100 | > 200 | Cc1ncccc1C(=O)Nc1ccc2c(c1)S(=O)(=O)N(c1ccc(C(F)(F)F)cc1)CCO2 [Compound 2286]
20 to 30 | > 200 | Cc1cc(C(=O)Nc2cnc3c(c2)S(=O)(=O)N(c2ccc(C(F)(F)F)cc2)CCO3)n(C)n1 [Compound 2495]
20 to 30 | 150 to 200 | Cc1nc(C)c(C(=O)Nc2ccc3c(c2)S(=O)(=O)N(c2ccc(C(F)(F)F)cc2)CCO3)o1 [Compound 1974, N-(1,1-Dioxido-2-(4-(Trifluoromethyl)Phenyl)-3,4-Dihydro-2H-Benzo[b][1,4,5]Oxathiazepin-8-yl)-2,4-Dimethyloxazole-5-Carboxamide]
30 to 100 | > 200 | Cc1nnccc1C(=O)Nc1ccc2c(c1)S(=O)(=O)N(c1ccc(C(F)(F)F)cc1)CCO2 [Compound 2242]
20 to 30 | 129 to 149 | O=C(Nc1ccc2c(c1)S(=O)(=O)N(c1ccc(C(F)(F)F)cc1)CCO2)c1cncn1CCO [Compound 2514]
< 20 | 129 to 149 | Cn1cc(C(=O)Nc2ccc3c(c2)S(=O)(=O)N(c2ccc(C(F)(F)F)cc2)CCO3)c2cccnc21 [Compound 2451]
30 to 100 | > 200 | O=C(Nc1ccc2c(c1)S(=O)(=O)N(c1ccc(C(F)(F)F)cc1)CCO2)c1cc(=O)cco1 [Compound 2190]
20 to 30 | 129 to 149 | CC(C)n1cnc(C(=O)Nc2ccc3c(c2)S(=O)(=O)N(c2ccc(C(F)(F)F)cc2)CCO3)n1 [Compound 2258]
